# According to the METLIN SMRT retention time set (Domingo-Almenara et al. 2019):
# Experiment: gradient 5% acetonitrile 3 min, to 50% in 2 min, to 85% in 15 min, held 3 min, 100 µL/min
# Settings: column: Zorbax Extend-C18 2.1 x 50 mm; eluents: water / acetonitrile, 0.1% formic acid
# Summary of the method: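 Retention time was recorded from adduct peaks, which were picked computationally and each inspected manually. Pure standards ran in mixtures of ~100 molecules on HPLC coupled to a quadrupole time-of-flight mass spectrometer, in positive and negative ionization mode, through a Zorbax Extend-C18 column (2.1 × 50 mm, 1.8 μm) at 100 μL/min. Eluents were water and acetonitrile, each with 0.1% formic acid.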
row,Structure (SMILES),RP-LC retention time [s]
1,O=C(c1ccco1)N1CCN(c2nc(-c3ccc(Cl)cc3)nc3ccccc23)CC1,747
2,CC(C)Cn1nc2n(c1=O)CCN(S(=O)(=O)c1cc(F)ccc1F)CC2,802
3,Cc1c(C(=O)NCc2ccccc2Br)cc(-c2ccccc2)n1C,1040
4,CCC(CC)NCCOC(=O)c1ccc([N+](=O)[O-])cc1,705
5,CCC(C(=O)NCCc1ccc(Cl)cc1)n1cnc2oc(C)c(C)c2c1=O (stereo not given),924
6,CN(C)C[C@@H]1CN(c2ccncn2)C[C@H]1NC(=O)c1ccc2c(c1)OCO2,527
7,O=S(=O)(c1ccc(F)cc1)N1CCc2nc(-c3ccccc3)ncc2C1,1040
8,CN1C/C=C/CCOc2cccc(c2)-c2ccnc(n2)Nc2cccc(c2)C1,742
9,COc1ccccc1NC(=O)N1CCC2(CC1)NC(=O)c1cc(F)ccc1N2C,756
10,O=C(NCc1ccccc1)C1CCN(C(=O)C2Sc3ccccc3NC2=O)CC1 (stereo not given),741
11,CCOc1ccc(CNC(=O)c2cn3cc(Cl)ccc3n2)cc1,863
12,O=C(CCc1nc(CSc2nnc(-c3ccccc3)o2)no1)Nc1ccccc1F,870
13,Cc1ccc(Nc2c(-c3ccc(O)cc3)nc3ccccn23)cc1,656
14,CCc1ccc(CNC(=O)CN2C(=O)C3CCCCN3c3ccc(S(=O)(=O)N(C)C)cc32)cc1 (stereo not given),975
15,O=C(NCc1ccc(F)cc1)N1CCc2nc[nH]c2C1,574
16,COc1ccc(Cl)cc1NS(=O)(=O)c1cc2c(s1)CCN(C(=O)C1CC1)C2,883
17,CCOc1ccc(C2c3c(oc4ccc(C)cc4c3=O)C(=O)N2CCCN2CCOCC2)cc1 (stereo not given),812
18,O=C(Cn1c(=O)c2nncn2c2ncccc21)N1CCN(c2ccc(Cl)cc2)CC1,744
19,Cc1cc(N2CCCCC2)n2nc(CN3CCC4(CC3)OCCO4)nc2n1,580
20,CCOc1ccccc1-c1noc(Cn2cnc3c(cnn3-c3ccc(CC)cc3)c2=O)n1,1170
21,CN1CCN(S(=O)(=O)c2ccc(Cl)c3ccccc23)CC1,580
22,O=C(CC1CCCC1)NCCC1CCN(C(=O)Nc2ccccc2)CC1,784
23,Cc1ccc(-c2cc3c(=O)n(Cc4noc(CN5CCC(C)CC5)n4)ccn3n2)cc1,713

row,Structure (SMILES),RP-LC retention time [s]
1,Cc1ccc(C2Cn3cnc(C(=O)N4CCC(C(=O)NC5CCCC5)CC4)c3CO2)cc1 (stereo not given),749
2,COc1cc(NC(=O)N2CCCC(Cn3cnc4cccnc43)C2)cc(OC)c1OC (stereo not given),627
3,CCC(=O)NCc1nc2c(n1CC)CN(S(=O)(=O)c1cccc(F)c1)CC2,529
4,COCCNC(=O)c1ccc2c(c1)CCCN2S(=O)(=O)c1ccc(Cl)cc1,885
5,CCc1noc(NC(C)=O)c1-c1ccc(C)c(S(=O)(=O)N2CCC(C)CC2)c1,929
6,CSc1ccc(-c2noc(-c3nnn4c3COC(c3ccc(C)cc3C)C4)n2)cc1 (stereo not given),1360
7,CCc1ccc(S(=O)(=O)N2CCc3nc(CNC(=O)C4CCC4)n(C)c3C2)cc1,652
8,N#Cc1ccc(N2C=C(C(=O)N3CCOCC3)S(=O)(=O)c3ccc(F)cc32)cc1,726
9,Cc1ccc(NC(=O)Cn2nc(N(C)C)c3ccccc3c2=O)c(F)c1,805
10,COc1ccc(Br)c2c1C(=O)CC2,826
11,CC(C)=CCC/C(C)=C/CNCCNC1C2CC3CC(C2)CC1C3 (stereo not given),624
12,CC(Cc1cccs1)NC(=O)c1cnccn1 (stereo not given),706
13,CCCNS(=O)(=O)c1cc2n(c1)CCCN(CC)C2=O,642
14,COc1ccccc1OCC(=O)N1CCN(c2cc(C(C)C)n3cnnc3n2)CC1,626
15,O=C(C1=NN(Cc2ccc(F)cc2)c2cc(Cl)ccc2S1(=O)=O)N1CCOCC1,899
16,CC(NC(=O)C1CCN(S(=O)(=O)c2ccc(Cl)cc2)CC1)C(=O)N1CCCc2ccccc21 (stereo not given),945
17,CCCCNC(=O)C1CCCN(C(=O)c2[nH]c(C)c(C(=O)OC)c2C)C1 (stereo not given),692
18,Cc1nc(Nc2ccc(F)cn2)sc1C(=O)NCCc1ccc(Cl)cc1,936
19,CCOC(=O)Cc1ccc(NC(=O)Nc2cccn3c(C)nnc23)cc1,723
20,Cc1ccc(C)c(S(=O)(=O)N2CCC(c3noc(-c4ccccc4C)n3)CC2)c1,1270
21,COc1ccc(CNC(=O)Nc2ccc(-c3nc(-c4ccc(C)cc4C)co3)cc2)cc1,1180
22,COc1ccc(NC(=O)c2[nH]c3cc(C)sc3c2CN(C)C)c(OC)c1,678
23,OCc1cnc(SCc2cccc(C(F)(F)F)c2)n1Cc1ccc2c(c1)OCO2,649

row,Structure (SMILES),RP-LC retention time [s]
1,CCNC(=O)c1cnn(-c2cc(-c3nc(CC)no3)ccn2)c1C,806
2,O=C(CCNc1c(-c2ccccc2)nc2cnccn12)NCC1CCCO1 (stereo not given),576
3,Cc1cc(C(=O)NCCN2CCCCC2)c2cc(Br)ccc2n1,567
4,CCNC(=O)NCc1nc(-c2ccc(Cl)cc2)no1,752
5,COc1ccc(C)cc1NC(=O)Cn1nc2c(Oc3ccc(Cl)cc3)nccn2c1=O,946
6,CC1=NC(C)(C)CC2CCC(O)C12 (stereo not given),683
7,CC(NC(=O)CCCn1c2ccccc2c2cnn(C)c(=O)c21)c1ccc2c(c1)OCCO2 (stereo not given),842
8,Cc1cc(NC(=O)CSc2nc(-c3cccs3)nc3c2c(=O)n(C)c(=O)n3C)no1,780
9,CC(C)CCOc1cccc(OCC(=O)NCC(=O)O)c1,772
10,O=C(c1ccco1)N1CCN(C(=O)c2c3c(nc4ccccc24)C(=O)N(C2CCCCC2)C3)CC1,727
11,Cc1ccc(S(=O)(=O)Nc2ccc(-c3cn4ccccc4n3)cc2)cc1,628
12,CC(C)C(=O)N1CC(c2nc(-c3ccc(F)cc3)no2)C2(CCOCC2)C1 (stereo not given),857
13,Cc1noc(C)c1S(=O)(=O)N1CCC2(CCC(CN(C)Cc3ccncc3)O2)CC1 (stereo not given),604
14,COCCOC1CCN(S(=O)(=O)c2cccc(OC)c2)CC1,811
15,C=CCN1C(=O)COc2ccc(-c3nc(NC(=O)c4ccco4)sc3C)cc21,903
16,Cc1cccc(-c2nc(C)c(C(=O)NC3CC3)s2)c1,869
17,C=CCNC(=O)CCc1c(-c2ccc(F)cc2)nc2ccccn12,589
18,CCOC(=O)c1nc(Nc2cccc(C)c2C)c2ccccc2n1,826
19,CCCn1cnc2ccc(-c3noc(-c4ccccc4F)n3)cc21,812
20,Cn1c(C(=O)N2CCCc3ccccc32)cc2c(=O)oc3ccccc3c21,988
21,Cc1nn(-c2ccc(F)cc2)c(C)c1S(=O)(=O)N1CCC(C(=O)N2CCN(C)CC2)CC1,625
22,CCOc1ccc(-c2nc(C#N)c(N3CCN(C(=O)c4ccccc4Cl)CC3)o2)cc1,986
23,Cc1ccc(-c2coc(-c3ccc(NC(=O)NCc4cccc(F)c4)cc3)n2)c(C)c1,1200

row,Structure (SMILES),RP-LC retention time [s]
1,CCN(CC)c1cc(CNC(=O)Nc2cc(Cl)ccc2OC)ccn1,690
2,CC(C)NC(=O)C1CCN(c2nc3ccc(-c4ccccc4F)nc3s2)CC1,915
3,CCOC(=O)c1sc2nc(C)cc(C(F)(F)F)c2c1N,1130
4,Cc1ccc(CNC(=O)c2ccc3c(c2)N(C)C(=O)C2CCCCN32)cc1 (stereo not given),908
5,COc1ccccc1C(=O)N1CCCC1c1cc(C(C)C)on1 (stereo not given),831
6,CC(C)C(=O)N1CCc2c([nH]c3ccccc23)C12C(=O)Nc1ccc(Br)cc12 (stereo not given),925
7,COc1ccc(S(=O)(=O)N2CCC3(CC2)c2nccn2CCN3C)cc1OC,610
8,Cc1cccc(C(=O)N2C[C@H](c3nc(-c4ccccc4)no3)[C@@H](C)C2)c1,731
9,Cc1ccc2c(c1)N(S(C)(=O)=O)CCC(C(=O)Nc1ccc(F)cc1F)O2 (stereo not given),958
10,O=C(NCc1ccncc1)c1ccc(-c2ccsc2)nc1,589
11,Cc1ccc(-c2nnc(-c3nn(C)c4c3CN(S(=O)(=O)c3cccc(F)c3)CC4)o2)cc1,999
12,CCn1cc(S(=O)(=O)N2CCCC(n3c(C)cnc3-c3ccccc3)C2)cn1 (stereo not given),639
13,CCc1nn2c(CNC(=O)c3ccc(Cl)cc3)c(-c3ccccc3)nc2s1,974
14,Cn1cnc2cc(CNC(=O)c3ccc4cc[nH]c4c3)ccc21,603
15,CCN1CCN(CCNC(=O)c2cc3n(n2)CCCN(Cc2ccc(C)cc2)C3=O)CC1,614
16,CCCNC(=O)C1CCCN(c2nc3ncn(CC(=O)Nc4ccccc4OCC)c(=O)c3s2)C1 (stereo not given),742
17,Cc1oc(-c2cccc(Cl)c2)nc1Cn1nnc(-c2nc(-c3ccc(F)cc3)no2)c1C,869
18,CCc1cccc(NC(=O)Cn2nc(C(=O)N3CCOCC3)c3ccccc32)c1,840
19,O=C(C1=NN(Cc2cc(F)cc(F)c2)c2ccccc2S1(=O)=O)N1CCCCC1,956
20,Cc1cc(-c2csc(S(=O)(=O)N3CCN(CCOc4ccc(Cl)cc4)CC3)c2)on1,760
21,CCCCN1C(=O)C(C)(C(=O)NC2CCN(Cc3ccccc3)CC2)Oc2cccnc21 (stereo not given),694
